US20200157144A1, “ANTIMICROBIAL PEPTIDOMIMETICS” (priority 2017, published 2020)
≈ marks a conversion by molar mass, not a printed value. Where two headings read alike, the source gives them in different places. Each block holds one compound with its values, some of them ahead of it. Square brackets hold non-standard residues; d marks the D form. Peptide text beside a SMILES is read from it. Bip(4'-Cl) = N[C@@H](Cc1ccc(-c2ccc(Cl)cc2)cc1)C(=O)O; dBip(4'-Cl) = N[C@H](Cc1ccc(-c2ccc(Cl)cc2)cc1)C(=O)O; Bip = N[C@@H](Cc1ccc(-c2ccccc2)cc1)C(=O)O; Phe(4-Br) = N[C@@H](Cc1ccc(Br)cc1)C(=O)O; Phe(4-Me) = Cc1ccc(C[C@H](N)C(=O)O)cc1

Tests used:
Experiment in all cases: microbe, parasite or virus in culture
Type in all cases: cell-based, Staphylococcus aureus
[1] = test system: Mupirocin-resistant MRSA ATCC-BAA-1556
Procedure: (§1) The MICs of test compounds were determined using the microdilution method from the Clinical and Laboratory Standards Institute (CLSI) guidelines (Clinical and Laboratory Standards Institute. Methods for dilution antimicrobial susceptibility tests for bacteria that grow aerobically; approved standard—ninth edition. Document M07-A9. Vol. 32 No. 2. Wayne, Pa.: CLSI; 2012). Briefly, bacteria were grown fresh from frozen stock in Mueller Hinton 2 (MH2) agar at 37° C. After an overnight incubation, 5 bacteria colonies were selected to grow in cation-adjusted MH2 broth in a shaking incubator (140 RPM) at 37° C. Cells were grown to an optical density (OD600) of 0.15-0.16 determined using a spectrophotometer (Molecular Devices Spectra Max Plus), which corresponds to ˜1×10^8 CFU/mL. Test compounds were constituted into 4 mM DMSO stock solutions and then subjected to 2-fold serial dilution in a 96-well plate with concentrations ranging from 100 to 0.195 μM in duplicates. […] of microbial culture containing ˜1×10^6 CFU/mL of microbes in the respective broths was introduced into each well containing 50 μL of compound solution. After an overnight incubation at 35° C., (220 RPM), OD600 measurements were conducted using the microplate spectrophotometer. The MIC was defined as the lowest antibiotic or compound concentration (μM) required to inhibit bacteria growth.
(§2) The 11th well was used as the growth control well (medium with bacterial inoculums, no antibacterial) while the 12th well was the sterility control well (medium only).

[2] = test system: Mupirocin-resistant MRSA ATCC-BAA-1708
Procedure: as §1, §2

[3] = test system: Mupirocin-resistant MRSA ATCC-BAA-1750 (USA200)
Procedure: as §1, §2

[4] = test system: Mupirocin-susceptible MRSA ATCC-33592 (ST239)
Procedure: as §1, §2

[5] = test system: Mupirocin-susceptible MRSA ATCC-700699 (VISA)
Procedure: as §1, §2

[6] = test system: Mupirocin-susceptible MRSA ATCC-BAA-1681 (USA100)
Procedure: as §1, §2

[7] = test system: Mupirocin-susceptible MRSA ATCC-BAA-1707 (USA400)
Procedure: as §1, §2

[8] = test system: Mupirocin-susceptible MRSA ATCC-BAA-1754 (ST45)
Procedure: as §1, §2

[9] = test system: Mupirocin-susceptible MRSA ATCC-BAA-1756 (USA300)
Procedure: as §1, §2

[10] = test system: Mupirocin-susceptible MRSA ATCC-BAA-2762 (EMRSA15, ST22)
Procedure: as §1, §2

[11] = Mupirocin-resistant MRSA ATCC-BAA-1556, cation-adjusted MH2 broth, overnight 35° C., OD600, read-out: MIC

- MIC [1, 11]: 3.125 µM (≈ 2.64 µg/mL)
- improvement of bioactivity (lower MIC values) as compared to Compound 2 ([1]; against Mupirocin-resistant MRSA strains): about 4 fold
- MIC ([2]; ATCC-BAA-1708, read-out: MIC): 1.56 µM (≈ 1.32 µg/mL)
- MIC ([3]; ATCC-BAA-1750, read-out: MIC): 1.56 µM (≈ 1.32 µg/mL)
- MIC ([4]; ATCC-33592, read-out: MIC): 3.125 µM (≈ 2.64 µg/mL)
- MIC ([5]; ATCC-700699, read-out: MIC): 3.125 µM (≈ 2.64 µg/mL)
- MIC ([6]; ATCC-BAA-1681, read-out: MIC): 3.125 µM (≈ 2.64 µg/mL)
- MIC ([7]; ATCC-BAA-1707, read-out: MIC): 3.125 µM (≈ 2.64 µg/mL)
- MIC ([8]; ATCC-BAA-1754, read-out: MIC): 3.125 µM (≈ 2.64 µg/mL)
- MIC ([9]; ATCC-BAA-1756, read-out: MIC): 3.125 µM (≈ 2.64 µg/mL)
- MIC ([10]; ATCC-BAA-2762, read-out: MIC): 3.125 µM (≈ 2.64 µg/mL)
SMILES: N=C(N)NCCC[C@H](NC(=O)[C@H](Cc1ccc(-c2ccc(Cl)cc2)cc1)NC(=O)[C@H](CCCNC(=N)N)NC(=O)[C@@H](N)Cc1ccc(-c2ccc(Cl)cc2)cc1)C(N)=O [Compound 33] (H-[Bip(4'-Cl)]R[Bip(4'-Cl)]R-NH2)

SMILES: N=C(N)NCCCCNC(=O)[C@@H](Cc1ccc(-c2ccccc2)cc1)NC(=O)[C@@H](CCCNC(=N)N)NC(=O)[C@H](N)Cc1ccc(-c2ccccc2)cc1 [Compound 2]
- MIC [1, 11]: 12.5 µM (≈ 9.16 µg/mL)
- MIC ([2]; ATCC-BAA-1708, read-out: MIC): 6.25 µM (≈ 4.58 µg/mL)
- MIC ([3]; ATCC-BAA-1750, read-out: MIC): 6.25 µM (≈ 4.58 µg/mL)
- MIC ([4]; ATCC-33592, read-out: MIC): 6.25 µM (≈ 4.58 µg/mL)
- MIC ([5]; Mupirocin-susceptible MRSA ATCC-700699 (VISA), read-out: MIC): 6.25 µM (≈ 4.58 µg/mL)
- MIC ([6]; ATCC-BAA-1681, read-out: MIC): 6.25 µM (≈ 4.58 µg/mL)
- MIC ([7]; ATCC-BAA-1707, read-out: MIC): 6.25 µM (≈ 4.58 µg/mL)
- MIC ([8]; ATCC-BAA-1754, read-out: MIC): 6.25 µM (≈ 4.58 µg/mL)
- MIC ([9]; ATCC-BAA-1756, read-out: MIC): 6.25 µM (≈ 4.58 µg/mL)
- MIC ([10]; ATCC-BAA-2762, read-out: MIC): 6.25 µM (≈ 4.58 µg/mL)

SMILES: C=C[C@]1(C)C[C@@H](OC(=O)CS[C@@H]2C[C@H]3CC[C@@H](C2)N3C)[C@]2(C)[C@H](C)CC[C@]3(CCC(=O)[C@H]32)[C@@H](C)[C@@H]1O [Retapamulin]
- MIC ([1]; Staphylococcus aureus): ≤ 0.2 µM
- MIC ([2]; Staphylococcus aureus): ≤ 0.2 µM
- MIC ([3]; Staphylococcus aureus): ≤ 0.2 µM
- MIC ([4]; Staphylococcus aureus): ≤ 0.2 µM
- MIC ([5]; Staphylococcus aureus): ≤ 0.2 µM
- MIC ([6]; Staphylococcus aureus): ≤ 0.2 µM
- MIC ([7]; Staphylococcus aureus): ≤ 0.2 µM
- MIC ([8]; Staphylococcus aureus): ≤ 0.2 µM
- MIC ([9]; Staphylococcus aureus): ≤ 0.2 µM
- MIC ([10]; Staphylococcus aureus): ≤ 0.2 µM

- MIC ([1]; ATCC-BAA-1556, read-out: MIC): >100 µM
SMILES: N=C(N)NCCC[C@H](NC(=O)[C@H](Cc1ccc(-c2ccccc2)cc1)NC(=O)[C@H](CCCNC(=N)N)NC(=O)[C@@H](N)Cc1ccccc1)C(N)=O [Compound 5] (H-FR[Bip]R-NH2)

- MIC ([1]; ATCC-BAA-1556, read-out: MIC): 50 µM (≈ 44.4 µg/mL)
SMILES: CC(C)(C)c1cc(-c2ccc(C[C@H](N)C(=O)N[C@@H](CCCNC(=N)N)C(=O)N[C@@H](Cc3ccc(-c4ccccc4)cc3)C(=O)N[C@@H](CCCNC(=N)N)C(N)=O)cc2)cc(C(C)(C)C)c1 [Compound 29]

- MIC ([1]; ATCC-BAA-1556, read-out: MIC): 100 µM (≈ 77.9 µg/mL)
SMILES: N=C(N)NCCC[C@H](NC(=O)[C@H](Cc1ccc(Br)cc1)NC(=O)[C@H](CCCNC(=N)N)NC(=O)[C@@H](N)Cc1ccc(-c2ccccc2)cc1)C(N)=O [Compound 12] (H-[Bip]R[Phe(4-Br)]R-NH2)

- MIC ([1]; ATCC-BAA-1556, read-out: MIC): 6.25 µM (≈ 4.3 µg/mL)
SMILES: N=C(N)NCCC[C@@H](NC(=O)[C@H](N)Cc1ccc(-c2ccc(Cl)cc2)cc1)C(=O)N[C@H](Cc1ccc(-c2ccc(Cl)cc2)cc1)C(N)=O [Compound 35]

- MIC ([1]; ATCC-BAA-1556, read-out: MIC): 50 µM (≈ 38.8 µg/mL)
SMILES: N=C(N)NCCC[C@H](NC(=O)[C@H](Cc1ccc(-c2ccccc2)cc1)NC(=O)[C@H](CCCNC(=N)N)NC(=O)[C@@H](N)Cc1ccc(-c2ccccc2)cc1)C(N)=O [Compound 32] (H-[Bip]R[Bip]R-NH2)

- MIC ([1]; ATCC-BAA-1556, read-out: MIC): >100 µM
SMILES: N=C(N)NCCC[C@@H](NC(=O)[C@H](N)Cc1ccc(-c2ccc(Cl)cc2)cc1)C(=O)N[C@H](Cc1ccc(-c2ccc(Cl)cc2)cc1)C(=O)N[C@H](CCCNC(=N)N)C(=O)N[C@H](Cc1ccc(-c2ccc(Cl)cc2)cc1)C(N)=O [Compound 40] (H-[dBip(4'-Cl)][dR][dBip(4'-Cl)][dR][dBip(4'-Cl)]-NH2)

SMILES: N=C(N)NCCCCNC(=O)[C@H](Cc1ccc(-c2ccc(Cl)cc2)cc1)NC(=O)[C@H](CCCNC(=N)N)NC(=O)[C@@H](N)Cc1ccc(-c2ccc(Cl)cc2)cc1 [Compound 41]
- MIC ([1]; ATCC-BAA-1556, read-out: MIC): 6.25 µM (≈ 5.01 µg/mL)

- MIC ([1]; ATCC-BAA-1556, read-out: MIC): 12.5 µM (≈ 10.4 µg/mL)
SMILES: CC(C)(C)c1ccc(-c2ccc(C[C@H](NC(=O)[C@H](CCCNC(=N)N)NC(=O)[C@@H](N)Cc3ccc(-c4ccccc4)cc3)C(=O)N[C@@H](CCCNC(=N)N)C(N)=O)cc2)cc1 [Compound 24]

- MIC ([1]; ATCC-BAA-1556, read-out: MIC): >100 µM
SMILES: Cc1ccc(C[C@H](NC(=O)[C@H](CCCNC(=N)N)NC(=O)[C@@H](N)Cc2ccc(-c3ccccc3)cc2)C(=O)N[C@@H](CCCNC(=N)N)C(N)=O)cc1 [Compound 8] (H-[Bip]R[Phe(4-Me)]R-NH2)

- MIC ([1]; ATCC-BAA-1556, read-out: MIC): >100 µM
SMILES: N=C(N)NCCC[C@@H](NC(=O)[C@@H](Cc1ccc(-c2ccc(Cl)cc2)cc1)NC(=O)[C@H](N)CCCNC(N)=O)C(N)=O [Compound 36]

- MIC ([1]; ATCC-BAA-1556, read-out: MIC): 6.25 µM (≈ 5.07 µg/mL)
SMILES: N=C(N)NCCC[C@H](NC(=O)[C@H](Cc1ccc(-c2ccccc2)cc1)NC(=O)[C@H](CCCNC(=N)N)NC(=O)[C@@H](N)Cc1ccc(-c2cccc(Cl)c2)cc1)C(N)=O [Compound 27]

- MIC ([1]; ATCC-BAA-1556, read-out: MIC): 6.25 µM (≈ 5.28 µg/mL)
SMILES: N=C(N)NCCC[C@H](NC(=O)[C@H](Cc1ccc(-c2ccc(Cl)c(Cl)c2)cc1)NC(=O)[C@H](CCCNC(=N)N)NC(=O)[C@@H](N)Cc1ccc(-c2ccccc2)cc1)C(N)=O [Compound 18]

- MIC ([1]; ATCC-BAA-1556, read-out: MIC): 25 µM (≈ 21.3 µg/mL)
SMILES: N=C(N)NCCC[C@H](NC(=O)[C@H](Cc1ccc(-c2ccc(-c3ccccc3)cc2)cc1)NC(=O)[C@H](CCCNC(=N)N)NC(=O)[C@@H](N)Cc1ccc(-c2ccccc2)cc1)C(N)=O [Compound 26]
